Experiments:
human orexin-1 receptor = human orexin-1 receptor (Homo sapiens (Human), UniProt O43613); experiment: In vitro assay: intracellular calcium measurements (FLIPR), antagonistic activity; format: cell-based; conditions: CHO cells, 3 nM orexin-A, compound incubation 120 min; marked values are geometric means of n = 2-6; read-out: IC50 OX1
human orexin-2 receptor = human orexin-2 receptor (Homo sapiens (Human), UniProt O43614); experiment: as above; format: cell-based; conditions: CHO cells, 3 nM orexin-A, compound incubation 120 min; marked values are geometric means of n = 2-6; read-out: IC50 OX2
Chain of human orexin-2 receptor (O43614 whole entry): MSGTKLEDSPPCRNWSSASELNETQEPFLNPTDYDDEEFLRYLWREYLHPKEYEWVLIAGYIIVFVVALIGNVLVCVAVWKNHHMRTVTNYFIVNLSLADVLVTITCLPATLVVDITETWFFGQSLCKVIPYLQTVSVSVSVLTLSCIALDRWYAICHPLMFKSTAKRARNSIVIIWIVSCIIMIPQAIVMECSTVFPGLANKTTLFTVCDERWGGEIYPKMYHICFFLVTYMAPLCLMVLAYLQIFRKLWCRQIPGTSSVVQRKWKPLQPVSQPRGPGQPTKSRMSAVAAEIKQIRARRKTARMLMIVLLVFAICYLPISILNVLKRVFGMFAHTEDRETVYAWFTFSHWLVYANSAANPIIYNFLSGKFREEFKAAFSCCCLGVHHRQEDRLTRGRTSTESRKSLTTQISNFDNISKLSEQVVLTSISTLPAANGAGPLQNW

Chain of human orexin-1 receptor (O43613 whole entry): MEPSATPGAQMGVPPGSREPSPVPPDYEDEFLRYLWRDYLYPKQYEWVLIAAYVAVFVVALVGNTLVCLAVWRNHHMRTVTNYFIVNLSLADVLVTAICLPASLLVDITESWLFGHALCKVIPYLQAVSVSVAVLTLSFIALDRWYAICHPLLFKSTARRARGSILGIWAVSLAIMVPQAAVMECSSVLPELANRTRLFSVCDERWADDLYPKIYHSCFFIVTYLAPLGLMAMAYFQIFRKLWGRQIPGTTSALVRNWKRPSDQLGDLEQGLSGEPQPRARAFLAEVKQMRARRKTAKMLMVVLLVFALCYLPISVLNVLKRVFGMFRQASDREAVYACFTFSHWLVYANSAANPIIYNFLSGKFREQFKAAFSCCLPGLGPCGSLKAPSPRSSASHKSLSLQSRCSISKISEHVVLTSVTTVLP

Row | SMILES | IC50 (human orexin-1 receptor) [nM] | IC50 (human orexin-2 receptor) [nM]
1 | COc1cccc(OC)c1C1CCCC(=O)N1Cc1cccc(-c2ccc(F)cc2)n1 (centres unmarked) [Example 6, 6-(2,6-dimethoxyphenyl)-1-((6-(4-fluorophenyl)pyridin-2-yl)methyl)piperidin-2-one] | 119 | 142
2 | COc1cccc(OC)c1C1CCCC(=O)N1Cc1cccc(-c2cccnc2)c1 (centres unmarked) [Example 7, 6-(2,6-dimethoxyphenyl)-1-(3-(pyridin-3-yl)benzyl)piperidin-2-one] | 71 | 55
3 | COc1cccc(OC)c1C1CCCC(=O)N1Cc1cncc(-c2ccccc2)c1 (centres unmarked) [Example 8, 6-(2,6-dimethoxyphenyl)-1-((5-phenylpyridin-3-yl)methyl)piperidin-2-one] | 1700 | 700
4 | COc1cccc(OC)c1C1CCCC(=O)N1Cc1cccc(-c2ccncc2)c1 (centres unmarked) [Example 9, 6-(2,6-dimethoxyphenyl)-1-(3-(pyridin-4-yl)benzyl)piperidin-2-one] | 29 | 64
5 | COc1cccc(OC)c1C1CCCC(=O)N1Cc1cccc(-c2ccccn2)c1 (centres unmarked) [Example 10, 6-(2,6-dimethoxyphenyl)-1-(3-(pyridin-2-yl)benzyl)piperidin-2-one] | 9 | 8
6 | COc1cccc(OC)c1C1CCCC(=O)N1Cc1cccc(-c2ccccc2)n1 (centres unmarked) [Example 11, 6-(2,6-dimethoxyphenyl)-1-((6-phenylpyridin-2-yl)methyl)piperidin-2-one] | 34 | 43
7 | COc1cccc(OC)c1C1CCCC(=O)N1Cc1ccnc(-c2ccccc2)c1 (centres unmarked) [Example 12, 6-(2,6-dimethoxyphenyl)-1-((2-phenylpyridin-4-yl)methyl)piperidin-2-one] | 25 | 34
8 | COc1cccc(OC)c1C1CCCC(=O)N1Cc1cccc(N2CCCCC2)c1 (centres unmarked) [Example 13, 6-(2,6-dimethoxyphenyl)-1-(3-(piperidin-1-yl)benzyl)piperidin-2-one] | 22 | 46
9 | COc1cccc(OC)c1C1CCCC(=O)N1Cc1cccc(-c2nccs2)c1 (centres unmarked) [Example 14, 6-(2,6-dimethoxyphenyl)-1-(3-(thiazol-2-yl)benzyl)piperidin-2-one] | 4 | 4
10 | COc1cccc(OC)c1C1CCCC(=O)N1Cc1cccc2ccccc12 (centres unmarked) [Example 15, 6-(2,6-dimethoxyphenyl)-1-(naphthalen-1-ylmethyl)piperidin-2-one] | 210 | 23
11 | COc1cccc(OC)c1C1CCCC(=O)N1Cc1cccc(-c2csc(C)n2)c1 (centres unmarked) [Example 16, 6-(2,6-dimethoxyphenyl)-1-(3-(2-methylthiazol-4-yl)benzyl)piperidin-2-one] | 3 | 2
12 | COc1cccc(OC)c1C1CCCC(=O)N1Cc1cccc(N2CCOCC2)c1 (centres unmarked) [Example 17, 6-(2,6-dimethoxyphenyl)-1-(3-morpholinobenzyl)piperidin-2-one] | 210 | 661
13 | COc1cccc(OC)c1C1CCCC(=O)N1Cc1ccc(-c2ccccc2)s1 (centres unmarked) [Example 18, 6-(2,6-dimethoxyphenyl)-1-((5-phenylthiophen-2-yl)methyl)piperidin-2-one] | 117 | 38
14 | COc1cccc(OC)c1C1CCCC(=O)N1Cc1cccc(-n2cccn2)c1 (centres unmarked) [Example 19, 1-(3-(1H-pyrazol-1-yl)benzyl)-6-(2,6-dimethoxyphenyl)piperidin-2-one] | 25 | 26
15 | COc1cccc(OC)c1C1CCCC(=O)N1Cc1ccc2nccnc2c1 (centres unmarked) [Example 20, 6-(2,6-dimethoxyphenyl)-1-(quinoxalin-6-ylmethyl)piperidin-2-one] | 952 | 864
16 | COc1cccc(OC)c1C1CCCC(=O)N1Cc1cnc(-c2ccccc2)s1 (centres unmarked) [Example 21, 6-(2,6-dimethoxyphenyl)-1-((2-phenylthiazol-5-yl)methyl)piperidin-2-one] | 951 | 366
17 | COc1cccc(OC)c1C1CCCC(=O)N1Cc1cc(-c2ccccc2)ccn1 (centres unmarked) [Example 22, 6-(2,6-dimethoxyphenyl)-1-((4-phenylpyridin-2-yl)methyl)piperidin-2-one] | 166 | 131
18 | COc1cccc(OC)c1C1CCCC(=O)N1Cc1cccc(-n2cncn2)c1 (centres unmarked) [Example 23, 1-(3-(1H-1,2,4-triazol-1-yl)benzyl)-6-(2,6-dimethoxyphenyl)piperidin-2-one] | 312 | 471
19 | COc1cccc(OC)c1C1CCCC(=O)N1Cc1cccc(N2CCCC2)c1 (centres unmarked) [Example 24, 6-(2,6-dimethoxyphenyl)-1-(3-(pyrrolidin-1-yl)benzyl)piperidin-2-one] | 22 | 31
20 | COc1cccc(OC)c1C1CCCC(=O)N1Cc1cc(-c2ccccc2)on1 (centres unmarked) [Example 25, 6-(2,6-dimethoxyphenyl)-1-((5-phenylisoxazol-3-yl)methyl)piperidin-2-one] | 688 | 902

Row | SMILES | IC50 (human orexin-1 receptor) [nM] | IC50 (human orexin-2 receptor) [nM]
21 | COc1cccc(OC)c1C1CCCC(=O)N1Cc1cnn(-c2ccccc2)c1 (centres unmarked) [Example 26, 6-(2,6-dimethoxyphenyl)-1-((1-phenyl-1H-pyrazol-4-yl)methyl)piperidin-2-one] | 167 | 115
22 | COc1cccc(OC)c1C1CCCC(=O)N1Cc1cccc(-n2ccnc2)c1 (centres unmarked) [Example 27, 1-(3-(1H-imidazol-1-yl)benzyl)-6-(2,6-dimethoxyphenyl)piperidin-2-one] | 136 | 181
23 | COc1cccc(OC)c1C1CCCC(=O)N1Cc1cccc(N2CCCCC2)n1 (centres unmarked) [Example 28, 6-(2,6-dimethoxyphenyl)-1-((6-(piperidin-1-yl)pyridin-2-yl)methyl)piperidin-2-one] | 21 | 11
24 | COc1cccc(OC)c1C1CCCC(=O)N1Cc1cccc(-c2ncccn2)c1 (centres unmarked) [Example 29, 6-(2,6-dimethoxyphenyl)-1-(3-(pyrimidin-2-yl)benzyl)piperidin-2-one] | 14 | 28
25 | COc1cccc(OC)c1C1CCCC(=O)N1Cc1ccc2oc3ccccc3c2c1 (centres unmarked) [Example 30, 1-(dibenzo[b,d]furan-2-ylmethyl)-6-(2,6-dimethoxyphenyl)piperidin-2-one] | 2 | 4
26 | COc1cccc(OC)c1C1CCCC(=O)N1Cc1nc2ccccc2s1 (centres unmarked) [Example 31, 1-(benzo[d]thiazol-2-ylmethyl)-6-(2,6-dimethoxyphenyl)piperidin-2-one] | 941 | 858
27 | COc1cccc(OC)c1C1CCCC(=O)N1Cc1ccc2c(c1)c1ccccc1n2C (centres unmarked) [Example 32, 6-(2,6-dimethoxyphenyl)-1-((9-methyl-9H-carbazol-3-yl)methyl)piperidin-2-one] | 50 | 132
28 | COc1cccc(OC)c1C1CCCC(=O)N1Cc1cccc(-c2noc(C)n2)c1 (centres unmarked) [Example 33, 6-(2,6-dimethoxyphenyl)-1-(3-(5-methyl-1,2,4-oxadiazol-3-yl)benzyl)piperidin-2-one] | 39 | 50
29 | COc1cccc(OC)c1C1CCCC(=O)N1Cc1ccnc(N2CCCC2)c1 (centres unmarked) [Example 34, 6-(2,6-dimethoxyphenyl)-1-((2-(pyrrolidin-1-yl)pyridin-4-yl)methyl)piperidin-2-one] | 1050 | 2060
30 | COc1cccc(OC)c1C1CCCC(=O)N1Cc1csc(-c2ccccc2)n1 (centres unmarked) [Example 35, 6-(2,6-dimethoxyphenyl)-1-((2-phenylthiazol-4-yl)methyl)piperidin-2-one] | 28 | 5
31 | COc1cccc(OC)c1C1CCCC(=O)N1Cc1ccnc(Br)c1 (centres unmarked) [Example 36, 1-((2-bromopyridin-4-yl)methyl)-6-(2,6-dimethoxyphenyl)piperidin-2-one] | 1570 | 1150
32 | COc1cccc(OC)c1C1CCCC(=O)N1Cc1cccc(-c2ccccn2)c1F (centres unmarked) [Example 37, 6-(2,6-dimethoxyphenyl)-1-(2-fluoro-3-(pyridin-2-yl)benzyl)piperidin-2-one] | 72 | 64
33 | COc1cccc(OC)c1C1CCCC(=O)N1Cc1cccc(-c2ccccn2)n1 (centres unmarked) [Example 38, 1-([2,2′-bipyridin]-6-ylmethyl)-6-(2,6-dimethoxyphenyl)piperidin-2-one] | 153 | 87
34 | COc1cccc(OC)c1C1CCCC(=O)N1Cc1cccc(-c2nccs2)n1 (centres unmarked) [Example 39, 6-(2,6-dimethoxyphenyl)-1-((6-(thiazol-2-yl)pyridin-2-yl)methyl)piperidin-2-one] | 179 | 147
35 | COc1cccc(OC)c1C1CCCC(=O)N1Cc1cc(-c2ccccn2)ccc1F (centres unmarked) [Example 40, 6-(2,6-dimethoxyphenyl)-1-(2-fluoro-5-(pyridin-2-yl)benzyl)piperidin-2-one] | 75 | 696
36 | COc1cccc(OC)c1C1CCCC(=O)N1Cc1ccc(F)c(-c2ccccn2)c1 (centres unmarked) [Example 41, 6-(2,6-dimethoxyphenyl)-1-(4-fluoro-3-(pyridin-2-yl)benzyl)piperidin-2-one] | 18 | 26
37 | COc1cccc(OC)c1C1CCCC(=O)N1Cc1cccc(-c2cncs2)c1 (centres unmarked) [Example 42, 6-(2,6-dimethoxyphenyl)-1-(3-(thiazol-5-yl)benzyl)piperidin-2-one] | 25 | 17
38 | COc1cccc(OC)c1C1CCCC(=O)N1Cc1cccc(-c2ncc(C)s2)c1 (centres unmarked) [Example 43, 6-(2,6-dimethoxyphenyl)-1-(3-(5-methylthiazol-2-yl)benzyl)piperidin-2-one] | 6 | 6
39 | COc1cccc(OC)c1C1CCCC(=O)N1Cc1cccc(-n2nccn2)c1 (centres unmarked) [Example 44, 1-(3-(2H-1,2,3-triazol-2-yl)benzyl)-6-(2,6-dimethoxyphenyl)piperidin-2-one] | 14 | 19
40 | COc1cccc(OC)c1C1CCCC(=O)N1Cc1cccc(-c2cscn2)c1 (centres unmarked) [Example 45, 6-(2,6-dimethoxyphenyl)-1-(3-(thiazol-4-yl)benzyl)piperidin-2-one] | 12 | 17
